Experimental data from patent publication US20230002367A1, “BIFUNCTIONAL COMPOUNDS” (Hoffmann-La Roche Inc., priority 2019, published 2023).

Biological target: T1, SMARCA2 (Homo sapiens, UniProt P51531)
T1 construct: endogenous in cells
Assay: SMARCA2 HiBiT degradation assay (cellular)
Type: cell-based
Conditions: for Emax: A549, Emax = amount of residual protein remaining in the cell following compound treatment; for DC50: SMARCA2 HiBiT cells, luminescence readout, 11-point titration from 10 μM, 6 hours or 16 hours, read-out: HiBit A549 SMARCA2 IP

T1 sequence (P51531 whole entry): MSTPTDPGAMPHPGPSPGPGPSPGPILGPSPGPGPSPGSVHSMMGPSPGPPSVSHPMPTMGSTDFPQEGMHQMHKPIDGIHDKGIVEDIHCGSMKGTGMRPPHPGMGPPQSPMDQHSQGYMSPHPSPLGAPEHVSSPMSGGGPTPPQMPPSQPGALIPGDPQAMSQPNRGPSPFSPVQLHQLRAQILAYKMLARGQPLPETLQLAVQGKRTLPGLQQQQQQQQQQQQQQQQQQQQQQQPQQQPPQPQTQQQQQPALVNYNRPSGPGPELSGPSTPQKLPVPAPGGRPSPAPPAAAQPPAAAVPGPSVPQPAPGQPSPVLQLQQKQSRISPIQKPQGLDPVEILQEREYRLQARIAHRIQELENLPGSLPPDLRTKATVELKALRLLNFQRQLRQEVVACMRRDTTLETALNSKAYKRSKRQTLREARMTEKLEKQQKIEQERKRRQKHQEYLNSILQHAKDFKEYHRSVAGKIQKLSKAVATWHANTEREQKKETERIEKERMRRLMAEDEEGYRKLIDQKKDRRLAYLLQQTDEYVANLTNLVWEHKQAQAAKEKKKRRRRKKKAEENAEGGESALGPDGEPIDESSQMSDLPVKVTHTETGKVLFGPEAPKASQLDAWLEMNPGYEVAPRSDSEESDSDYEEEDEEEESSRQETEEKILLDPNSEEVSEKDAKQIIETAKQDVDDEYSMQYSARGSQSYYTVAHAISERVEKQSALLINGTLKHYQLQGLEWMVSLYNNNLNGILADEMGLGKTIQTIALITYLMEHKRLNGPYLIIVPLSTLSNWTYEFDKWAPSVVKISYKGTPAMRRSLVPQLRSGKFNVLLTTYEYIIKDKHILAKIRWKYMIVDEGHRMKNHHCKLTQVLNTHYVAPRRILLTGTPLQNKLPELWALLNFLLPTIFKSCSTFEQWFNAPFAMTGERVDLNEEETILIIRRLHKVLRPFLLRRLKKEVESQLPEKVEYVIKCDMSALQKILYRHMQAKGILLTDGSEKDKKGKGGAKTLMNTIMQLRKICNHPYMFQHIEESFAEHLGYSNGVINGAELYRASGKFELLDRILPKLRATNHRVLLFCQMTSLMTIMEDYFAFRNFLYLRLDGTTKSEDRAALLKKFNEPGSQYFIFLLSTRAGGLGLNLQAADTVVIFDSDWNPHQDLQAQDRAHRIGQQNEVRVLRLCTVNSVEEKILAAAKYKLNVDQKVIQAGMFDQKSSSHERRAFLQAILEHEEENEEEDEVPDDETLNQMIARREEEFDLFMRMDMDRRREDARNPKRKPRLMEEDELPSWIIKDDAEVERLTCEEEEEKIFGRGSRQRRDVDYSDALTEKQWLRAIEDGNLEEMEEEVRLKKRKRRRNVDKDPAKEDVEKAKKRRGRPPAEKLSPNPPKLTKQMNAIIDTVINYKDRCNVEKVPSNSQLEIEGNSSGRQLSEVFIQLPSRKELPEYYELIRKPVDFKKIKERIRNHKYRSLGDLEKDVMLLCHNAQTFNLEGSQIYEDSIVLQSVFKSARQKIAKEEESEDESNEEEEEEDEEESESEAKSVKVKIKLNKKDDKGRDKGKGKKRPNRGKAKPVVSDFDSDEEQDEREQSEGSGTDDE

| Emax [%] | DC50 [nM] | SMILES |
| --- | --- | --- |
| 23 | 749 | Cc1ncsc1-c1ccc([C@H](C)NC(=O)[C@@H]2C[C@@H](O)CN2C(=O)[C@@H](NC(=O)CCCCCC(=O)N2CCOC3(CCN(c4cc(-c5ccccc5O)nnc4N)CC3)C2)C(C)(C)C)cc1 [Example 43, (2S,4R)-1-[(2S)-2-[[7-[9-[3-amino-6-(2-hydroxyphenyl)pyridazin-4-yl]-1-oxa-4,9-diazaspiro[5.5]undecan-4-yl]-7-oxo-heptanoyl]amino]-3,3-dimethyl-butanoyl]-4-hydroxy-N-[(1S)-1-[4-(4-methylthiazol-5-yl)phenyl]ethyl]pyrrolidine-2-carboxamide] |
| 21 | 205 | Cc1ncsc1-c1ccc([C@H](C)NC(=O)[C@@H]2C[C@@H](O)CN2C(=O)[C@@H](NC(=O)CCCCCCCCCCC(=O)N2CCOC3(CCN(c4cc(-c5ccccc5O)nnc4N)CC3)C2)C(C)(C)C)cc1 [Example 44, (2S,4R)-1-[(2S)-2-[[12-[9-[3-amino-6-(2-hydroxyphenyl)pyridazin-4-yl]-1-oxa-4,9-diazaspiro[5.5]undecan-4-yl]-12-oxo-dodecanoyl]amino]-3,3-dimethyl-butanoyl]-4-hydroxy-N-[(1S)-1-[4-(4-methylthiazol-5-yl)phenyl]ethyl]pyrrolidine-2-carboxamide] |
| 33 | 120 | Cc1ncsc1-c1ccc([C@H](C)NC(=O)[C@@H]2C[C@@H](O)CN2C(=O)[C@@H](NC(=O)CCCCCCCCCCCCC(=O)N2CCOC3(CCN(c4cc(-c5ccccc5O)nnc4N)CC3)C2)C(C)(C)C)cc1 [Example 45, (2S,4R)-1-[(2S)-2-[[14-[9-[3-amino-6-(2-hydroxyphenyl)pyridazin-4-yl]-1-oxa-4,9-diazaspiro[5.5]undecan-4-yl]-14-oxo-tetradecanoyl]amino]-3,3-dimethyl-butanoyl]-4-hydroxy-N-[(1S)-1-[4-(4-methylthiazol-5-yl)phenyl]ethyl]pyrrolidine-2-carboxamide] |
| 63 | 2150 | Cc1ncsc1-c1ccc(CNC(=O)[C@@H]2C[C@@H](O)CN2C(=O)[C@@H](NC(=O)CCCCCCCCC(=O)NCC(COc2cc(-c3ccccc3O)nnc2N)c2ccccc2)C(C)(C)C)cc1 (stereo partly drawn) [Example 50, N1-(3-((3-amino-6-(2-hydroxyphenyl)pyridazin-4-yl)oxy)-2-phenylpropyl)-N10-((S)-1-((2S,4R)-4-hydroxy-2-((4-(4-methylthiazol-5-yl)benzyl)carbamoyl)pyrrolidin-1-yl)-3,3-dimethyl-1-oxobutan-2-yl)decanediamide] |
| 56 | 533 | Cc1ncsc1-c1ccc(CNC(=O)[C@@H]2C[C@@H](O)CN2C(=O)[C@@H](NC(=O)CCCCCCCCC(=O)N2CCN(CCOc3cccc(N4CCOC5(CCN(c6cc(-c7ccccc7O)nnc6N)CC5)C4)c3)CC2)C(C)(C)C)cc1 [Example 52, (2S,4R)-1-[(2S)-2-[[10-[4-[2-[3-[9-[3-amino-6-(2-hydroxyphenyl)pyridazin-4-yl]-1-oxa-4,9-diazaspiro[5.5]undecan-4-yl]phenoxy]ethyl]piperazin-1-yl]-10-oxo-decanoyl]amino]-3,3-dimethyl-butanoyl]-4-hydroxy-N-[[4-(4-methylthiazol-5-yl)phenyl]methyl]pyrrolidine-2-carboxamide] |
| 44 | 240 | Cc1ncsc1-c1ccc(CNC(=O)[C@@H]2C[C@@H](O)CN2C(=O)[C@@H](NC(=O)CCCCCCCCC(=O)N2CCN(Cc3cccc(C#Cc4cc(-c5ccccc5O)nnc4N)c3)CC2)C(C)(C)C)cc1 [Example 53, (2S,4R)-1-[(2S)-2-[[10-[4-[[3-[2-[3-amino-6-(2-hydroxyphenyl)pyridazin-4-yl]ethynyl]phenyl]methyl]piperazin-1-yl]-10-oxo-decanoyl]amino]-3,3-dimethyl-butanoyl]-4-hydroxy-N-[[4-(4-methylthiazol-5-yl)phenyl]methyl]pyrrolidine-2-carboxamide] |
| 35 | 503 | Cc1ncsc1-c1ccc(CNC(=O)[C@@H]2C[C@@H](O)CN2C(=O)[C@@H](NC(=O)CCCCCCCCCCC(=O)N2CCN(Cc3cccc(C#Cc4cc(-c5ccccc5O)nnc4N)c3)CC2)C(C)(C)C)cc1 [Example 54, (2S,4R)-1-[(2S)-2-[[12-[4-[[3-[2-[3-amino-6-(2-hydroxyphenyl)pyridazin-4-yl]ethynyl]phenyl]methyl]piperazin-1-yl]-12-oxo-dodecanoyl]amino]-3,3-dimethyl-butanoyl]-4-hydroxy-N-[[4-(4-methylthiazol-5-yl)phenyl]methyl]pyrrolidine-2-carboxamide] |
| 35 | 736 | Cc1ncsc1-c1ccc([C@H](C)NC(=O)[C@@H]2C[C@@H](O)CN2C(=O)[C@@H](NC(=O)CCCCCC(=O)N2CCN(CCOc3cccc(CCOc4cc(-c5ccccc5O)nnc4N)c3)CC2)C(C)(C)C)cc1 [Example 57, (2S,4R)-1-[(2S)-2-[[7-[4-[2-[3-[2-[3-amino-6-(2-hydroxyphenyl)pyridazin-4-yl]oxyethyl]phenoxy]ethyl]piperazin-1-yl]-7-oxo-heptanoyl]amino]-3,3-dimethyl-butanoyl]-4-hydroxy-N-[(1S)-1-[4-(4-methylthiazol-5-yl)phenyl]ethyl]pyrrolidine-2-carboxamide] |
| 22 | 197 | Cc1ncsc1-c1ccc([C@H](C)NC(=O)[C@@H]2C[C@@H](O)CN2C(=O)[C@@H](NC(=O)CCCCCCCCC(=O)N2CCN(CCOc3cccc(CCOc4cc(-c5ccccc5O)nnc4N)c3)CC2)C(C)(C)C)cc1 [Example 58, (2S,4R)-1-[(2S)-2-[[10-[4-[2-[3-[2-[3-amino-6-(2-hydroxyphenyl)pyridazin-4-yl]oxyethyl]phenoxy]ethyl]piperazin-1-yl]-10-oxo-decanoyl]amino]-3,3-dimethyl-butanoyl]-4-hydroxy-N-[(1S)-1-[4-(4-methylthiazol-5-yl)phenyl]ethyl]pyrrolidine-2-carboxamide] |

| SMILES | Emax [%] | DC50 [nM] |
| --- | --- | --- |
| Cc1ncsc1-c1ccc(CNC(=O)[C@@H]2C[C@@H](O)CN2C(=O)[C@@H](NC(=O)CCCCCCCCC(=O)N2CCN(CCOc3ccccc3N3C4CCC3CN(c3cc(-c5ccccc5O)nnc3N)C4)CC2)C(C)(C)C)cc1 [Example 55, (2S,4R)-1-[(2S)-2-[[10-[4-[2-[2-[3-[3-amino-6-(2-hydroxyphenyl)pyridazin-4-yl]-3,8-diazabicyclo[3.2.1]octan-8-yl]phenoxy]ethyl]piperazin-1-yl]-10-oxo-decanoyl]amino]-3,3-dimethyl-butanoyl]-4-hydroxy-N-[[4-(4-methylthiazol-5-yl)phenyl]methyl]pyrrolidine-2-carboxamide] | 27 | 2580 |
| Cc1ncsc1-c1ccc([C@H](C)NC(=O)[C@@H]2C[C@@H](O)CN2C(=O)[C@@H](NC(=O)CCCCCCCCCC(=O)N2CCN(CCOc3cccc(N4C5CCC4CN(c4cc(-c6ccccc6O)nnc4N)C5)c3)CC2)C(C)C)cc1 [Example 56, (2S,4R)-1-[(2S)-2-[[11-[4-[2-[3-[3-[3-amino-6-(2-hydroxyphenyl)pyridazin-4-yl]-3,8-diazabicyclo[3.2.1]octan-8-yl]phenoxy]ethyl]piperazin-1-yl]-11-oxo-undecanoyl]amino]-3-methyl-butanoyl]-4-hydroxy-N-[(1S)-1-[4-(4-methylthiazol-5-yl)phenyl]ethyl]pyrrolidine-2-carboxamide] | 20 | 91 |
